One data set concerns Plasmodium falciparum. The experiment in a line: Antiparasitic activity against Plasmodium falciparum 3D7 infected in human erythrocyte assessed as intraerythrocytic growth inhibition incubated for 24 hrs followed by [3H]hypoxanthine addition by microbeta scintillation counter analysis. In kind it is functional, organism-based. The conditions noted are these: 3D7, Erythrocyte.

In the next data set the test system is Toxoplasma gondii. Description: Antiparasitic activity against Toxoplasma gondii tachyzoites infected in human foreskin fibroblast incubated for 48 hrs followed by [5,6-3H]uracil addition and measured after 4 hrs by scintillation counter analysis. In kind it is functional, organism-based. The conditions noted are these: type III.
The species entered for a further data set is Rattus norvegicus. The experiment in a line: Anti-osteoclast activity rat assessed as inhibition of bone resorption relative to control. In kind it is functional.
For data set [1], the system named is Trypanosoma brucei rhodesiense. The experiment in a line: Antiparasitic activity against Trypanosoma brucei rhodesiense STIB900 bloodstream trypomastigotes assessed as parasite growth inhibition incubated for 3 days by Alamar Blue fluorometric assay. In kind it is functional, organism-based. The conditions noted are these: STIB900, 72 h. A general note: Alamar Blue is a resazurin reagent that responds to reducing activity.

Data set [2] can be described thus: Drug distribution in NMRI mouse liver at 4.2 mg/kg administered as C14-lableled compound and assessed as radioactivity and measured upto 2 hrs. In kind it is ADME, organism-based. The conditions noted are these: in vivo.
Data set [3] in a line: Drug distribution in NMRI mouse spleen at 4.2 mg/kg administered as C14-lableled compound and assessed as radioactivity and measured upto 2 hrs. In kind it is ADME, organism-based. The conditions noted are these: in vivo.
Data set [4] has as its system Entamoeba histolytica. The experiment in a line: Antiparasitic activity against Entamoeba histolytica trophozoites infected in hamster liver to induce hepatic abscess assessed as reduction in liver abscess formation at 10 mg/kg, ip for 5 days. In kind it is functional. Details: scale not given: the % may be the effect or the level left. Particulars: time 5 day.
Data set [5] in a line: Drug uptake in Beagle dog thyroid gland at 0.15 mg/kg, iv administered as C14-lableled compound and assessed as radioactivity after 96 hrs by autoradiography. Particulars: in vivo. In kind it is ADME, organism-based, Canis lupus familiaris.
Data set [6] can be described thus: Drug uptake in Beagle dog lung at 0.15 mg/kg, iv administered as C14-lableled compound and assessed as radioactivity after 96 hrs by autoradiography. In kind it is ADME, organism-based, Canis lupus familiaris. The conditions noted are these: in vivo.
A short description of data set [7]: Drug uptake in Beagle dog spleen at 0.15 mg/kg, iv administered as C14-lableled compound and assessed as radioactivity after 96 hrs by autoradiography. In kind it is ADME, organism-based, Canis lupus familiaris. The conditions noted are these: in vivo.
Data set [8] is described as follows: Drug uptake in Beagle dog pancreas at 0.15 mg/kg, iv administered as C14-lableled compound and assessed as radioactivity after 96 hrs by autoradiography. In kind it is ADME, organism-based, Canis lupus familiaris. Particulars: in vivo.
Data set [9] in a line: Drug uptake in Beagle dog liver at 0.15 mg/kg, iv administered as C14-lableled compound and assessed as radioactivity after 96 hrs by autoradiography. In kind it is ADME, organism-based, Canis lupus familiaris. Particulars: in vivo.
In another data set the test system is Trypanosoma cruzi. The experiment in a line: Antiparasitic activity against Trypanosoma cruzi amastigotes infected in vero cells assessed as parasite growth inhibition incubated for 48 hrs by light microscopy. In kind it is functional, organism-based.
The nature of data set [10]: Drug uptake in Beagle dog knee cartilage at 0.15 mg/kg, iv administered as C14-lableled compound and assessed as radioactivity after 96 hrs by autoradiography. In kind it is ADME, organism-based, Canis lupus familiaris, Cartilage tissue. Particulars: in vivo.
Data set [11] is described as follows: Drug uptake in Beagle dog small intestine at 0.15 mg/kg, iv administered as C14-lableled compound and assessed as radioactivity after 96 hrs by autoradiography. Particulars: in vivo. In kind it is ADME, organism-based, Canis lupus familiaris.
The nature of data set [12]: Drug uptake in Beagle dog sciatic nerve at 0.15 mg/kg, iv administered as C14-lableled compound and assessed as radioactivity after 96 hrs by autoradiography. Particulars: in vivo. In kind it is ADME, organism-based, Canis lupus familiaris.
A short description of data set [13]: Drug uptake in Beagle dog aorta at 0.15 mg/kg, iv administered as C14-lableled compound and assessed as radioactivity after 96 hrs by autoradiography. In kind it is ADME, organism-based, Canis lupus familiaris. Particulars: in vivo.
A short description of data set [14]: Drug uptake in Beagle dog heart at 0.15 mg/kg, iv administered as C14-lableled compound and assessed as radioactivity after 96 hrs by autoradiography. In kind it is ADME, organism-based, Canis lupus familiaris. Particulars: in vivo.
The nature of data set [15]: Drug uptake in Beagle dog skin at 0.15 mg/kg, iv administered as C14-lableled compound and assessed as radioactivity after 96 hrs by autoradiography. In kind it is ADME, organism-based, Canis lupus familiaris, Skin of body. The conditions noted are these: in vivo.
Data set [16] can be described thus: Drug uptake in Beagle dog adrenal tissue at 0.15 mg/kg, iv administered as C14-lableled compound and assessed as radioactivity after 96 hrs by autoradiography. In kind it is ADME, organism-based, Canis lupus familiaris. Particulars: in vivo.
Data set [17] relates to Entamoeba histolytica. Description: Antiparasitic activity against Entamoeba histolytica trophozoites assessed as parasite growth inhibition incubated for 90 hrs followed by [3H]hypoxanthine addition and measured after 6 hrs by scintillation counter analysis. In kind it is functional, organism-based.
The next data set deals with Leishmania donovani. Description: Antiparasitic activity against amastigote stage Leishmania donovani MHOM/ET/67/L82 infected in CD-1 mouse peritoneal macrophage assessed as reduction in parasite burden incubated for 5 days by Giemsa staining based microscopy. In kind it is functional, organism-based. Particulars: MHOM/ET/67/L82, Peritoneal macrophage, 120 h.
The subject of the next data set is Plasmodium berghei. Description: Antiparasitic activity against Plasmodium berghei ANKA infected in BALB/c mouse assessed as reduction in parasitemia at 25 mg/kg, ip for 4 days. Particulars: time 4 day. Details: scale not given: the % may be the effect or the level left. In kind it is functional.
Data set [18] deals with T1, Ditrans,polycis-undecaprenyl-diphosphate synthase ((2E,6E)-farnesyl-diphosphate specific) (Escherichia coli (strain K12), UniProt P60472).
T1 sequence (P60472 whole entry): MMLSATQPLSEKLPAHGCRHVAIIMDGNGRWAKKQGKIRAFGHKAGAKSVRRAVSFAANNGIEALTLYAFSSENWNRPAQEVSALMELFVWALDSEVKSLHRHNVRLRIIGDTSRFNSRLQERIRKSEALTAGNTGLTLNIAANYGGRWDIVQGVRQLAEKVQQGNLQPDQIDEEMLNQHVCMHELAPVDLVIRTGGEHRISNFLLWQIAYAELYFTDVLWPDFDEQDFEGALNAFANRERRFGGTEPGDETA
The experiment in a line: Inhibition of Escherichia coli UPPS.

By IC50 is commonly meant the point on the concentration scale where inhibition reaches its midpoint. On to `CCCCCCCCCC(O)(P(=O)(O)O)P(=O)(O)O`, for which the concentration for half-maximal inhibition (IC50) was determined as 0.83 µM in the data set with Plasmodium falciparum and 0.55 µM in the data set on Toxoplasma gondii.

`CCCCCN(C)CCC(O)(P(=O)(O)O)P(=O)(O)O` [IBANDRONIC ACID]: in the data set listed under Rattus norvegicus, the “fold change (FC)” value came out at 1000.

Turning to `CCCCCCCCNC(O)(P(=O)(O)O)P(=O)(O)O`, the IC50 in data set [1] was 1.7 µM.

For `NCCC(O)(P(=O)(O)O)P(=O)(O)O` [PAMIDRONIC ACID], in the data set listed under Rattus norvegicus, the “fold change (FC)” value came out at 100. Besides, the Drug uptake in [2] and in data set [3] was 20% each time.

Take `CCCCCCCCCCC(O)(P(=O)(O)O)P(=O)(O)O`: inhibition with Toxoplasma gondii was half-maximal at 0.28 µM (IC50). In addition, the Activity in the data set with Entamoeba histolytica [4] came out at 68%.

As to `NCCCC(O)(P(=O)(O)O)P(=O)(O)O` [ALENDRONIC ACID], the “fold change (FC)” value in the data set filed under Rattus norvegicus is 400.

Turning to `O.O=P(O)(O)C(O)(Cn1ccnc1)P(=O)(O)O` [ZOLEDRONIC ACID], the Drug uptake in data set [5] is given as 0.3 nmol/g; in [6] it was more than 0.1 nmol/g; in data set [7], more than 0.1 nmol/g; in [8], more than 0.1 nmol/g; in data set [9], more than 0.1 nmol/g; in data set [10] it was 0.15 nmol/g. The Drug uptake in [11], in data set [12], in data set [13], in [14], in [15] and in data set [16] was more than 0.1 nmol/g in each case. In addition, the IC50 in data set [1] is 8.6 µM; in the data set with Plasmodium falciparum, more than 200 µM; in the data set with Trypanosoma cruzi, 35 µM; in the data set with Toxoplasma gondii it was 6.7 µM. Further, the “fold change (FC)” value in the data set listed under Rattus norvegicus was 6700.

Regarding `O=P(O)(O)C(O)(Cc1cccnc1)P(=O)(O)O` [RISEDRONIC ACID], the “fold change (FC)” value in the data set filed under Rattus norvegicus turned out to be 2000.

Consider `CC(O)(P(=O)(O)O)P(=O)(O)O` [ETIDRONIC ACID], for which the “fold change (FC)” value in the data set filed under Rattus norvegicus stood at 1.

Consider `O=P(O)(O)C(O)(Nc1ccc(-c2ccccc2)cc1)P(=O)(O)O`, for which the IC50 was determined as 76.6 µM with Plasmodium falciparum and 8.76 µM in the data set with Entamoeba histolytica [17].

As for `CCCCCC(O)(P(=O)(O)O)P(=O)(O)O`, the IC50 was more than 200 µM in the data set with Leishmania donovani, 92 µM in [1], 130 µM in the data set with Plasmodium falciparum and 9.1 µM in the data set on Toxoplasma gondii.

`O=P(O)(O)C(Cl)(Cl)P(=O)(O)O` [CLODRONIC ACID]: the “fold change (FC)” value in the data set listed under Rattus norvegicus was found to be 10.

With `CCCC(O)(P(=O)(O)O)P(=O)(O)O`, the IC50 in the data set on Plasmodium falciparum came to 5.53 µM; in the data set with Entamoeba histolytica [17], 157 µM. Also, the Activity in the data set with Plasmodium berghei worked out at 80%.

Take `O=P(O)(O)C(O)(Nc1cccc(-c2ccccc2)c1)P(=O)(O)O`: the IC50 in the data set on Plasmodium falciparum was more than 200 µM; in the data set on Entamoeba histolytica [17] it was 6.6 µM.

As for `O=P(O)(O)C(O)(CCc1cccnc1)P(=O)(O)O`, the half-maximal inhibitory concentration (IC50) in the data set with Leishmania donovani, in the data set on Plasmodium falciparum and with Toxoplasma gondii was more than 200 µM in each case.

Consider `CC(N)CC(O)(P(=O)(O)O)P(=O)(O)O` (stereo not drawn), for which the IC50 in the data set on Leishmania donovani and with Plasmodium falciparum was more than 200 µM throughout.

`O=P(O)(O)C(O)(Cc1cccc(-c2cccc3oc4ccccc4c23)c1)P(=O)(O)O` showed an IC50 in data set [18] of 0.59 µM.

With `Cc1cccnc1NC(P(=O)(O)O)P(=O)(O)O`, the 50% inhibitory concentration (IC50) in the data set on Plasmodium falciparum was more than 200 µM.
